Assay results as given in patent US20110053900A1, “PROGESTERONE ANTAGONISTS SUCH AS CDB-4124 IN THE TREATMENT OF BREAST CANCER” (Repros Therapeutics inc, priority 2008, published 2011).

Key:
[1] = tested on: rabbit progesterone receptor (rbPR) and glucocorticoid receptor (rbGR); test: Receptor-binding assays, ratio of relative binding affinities rbPR/rbGR; conditions: RBA = EC50 of standard/EC50 of test compound x 100
Experimental: Certain antiprogestins were tested in receptor-binding assays for their ability to bind rabbit progesterone receptor (rbPR) and glucocorticoid receptor (rbGR). Briefly, cytosol containing PR or GR were prepared in TEGMD buffer (10 mM Tris, pH 7.2, 1.5 mM EDTA, 0.2 mM sodium molybdate, 10% glycerol, 1 mM DTT) from uterus or thymus, respectively, of estradiol-primed immature rabbits. For PR binding, the cytosol was incubated with 6 nM 1,2-[^3H]progesterone (50.0 Ci/mmole) and competitors were added at concentrations from 2 to 100 nM. For binding to GR, the cytosol was incubated with 6 nM 6,7-[^3H]-dexamethasone (40 Ci/mmol) and test compounds were added at concentrations from 20 to 100 nM. After overnight incubation at 4° C., bound and unbound [^3H] steroids were separated by addition of dextran-coated charcoal and centrifugation at 2100×g for 15 min at 4
C. Supernatants containing the [3H]-steroid receptor complexes were decanted into vials containing 4 ml Optifluor (Packard Instrument Co.), vortexed, equilibrated in a liquid scintillation counter for 30 minutes and then counted for 2 minutes. The ECso (Effective Concentration) for each standard curve and each of the compound curves was determined by entering the counting data into a four parameter sigmoidal computer program (RiaSmart® Immunoassay Data Reduction Program, Packard Instrument Co., Meriden, Conn.). Relative binding affinity (RBA) for each compound was calculated using the following equation: EC50 of standard/EC50 of test compound×100. The standards for the PR and GR assays were unlabeled progesterone and dexamethasone, respectively. The results of these experiments are summarized in Table 1, as a ratio of the relative binding affinities of each compound for the rbPR and rbGR receptors (rbPR/rbGR).

rabbit uterus = test: Anti-McGinty and anti-Clauberg assays; type: in vivo; conditions: average of anti-McGinty and anti-Clauberg results relative to CDB-2914 = 1.00
Text: Also given in the Table are the relative biological activities of the same compounds in the rabbit uterus by the anti-McGinty and anti-Clauberg assays. Compound CDB-2914 (listed at the end of the Table) was used as the control or reference compound (rabbit Biological Activity=1.00) for these experiments because results of experiments using CDB-2914 have been published before (Hild-Petito et al., 1996; Passaro et al., 1997; Reel et al., 1998; Lamer et al., 2000). For the anti-McGinty test, immature female rabbits received a subcutaneous injection of 5 μg estradiol in 10% ethanol/sesame oil daily for 6 consecutive days. On day 7, animals underwent sterile abdominal surgery to ligate a 3-4 cm segment of both uterine horns. The test compound in appropriate solvent was injected intraluminally into the ligated segment of one uterine horn and vehicle alone into the other. A stimulating dose of progesterone (267 μg/day) was administered subcutaneously to each rabbit daily for the next three days to induce endometrial proliferation. All animals were sacrificed at day 10 for removal of the uterus where a segment central to the ligatures was removed and fixed in 10% neutral buffered formalin and submitted for histological processing. Five micron sections stained with hematoxylin and cosin were evaluated microscopically for the degree of endometrial glandular proliferation. The percent inhibition of endometrial proliferation for each rabbit was calculated and the mean of the group of five animals recorded. For the Anti-Clauberg test, immature female rabbits received a subcutaneous injection of 5 μg estradiol in 10% ethanol/sesame oil daily for 6 consecutive days. On day 7, animals received progesterone by subcutaneous injection (160 μg/day) and the experimental compound in appropriate vehicle orally or subcutaneously for five consecutive days. One group of rabbits received progesterone only. Twenty-four hours after the last dose, all animals were sacrificed for removal of the uterus which was cleaned of all fat and connective tissue, weighed to the nearest 0.2 mg and placed in 10% neutral buffered formalin for subsequent histological processing. Five micron sections stained with hematoxylin and eosin were evaluated microscopically for the degree of endometrial glandular proliferation. The percent inhibition of endometrial proliferation at each dose level of the test compound was derived by comparison with progesterone-stimulated animals alone. The data presented in Table 1 (rabbit Biol. Act.) reflects the average of the results obtained for each compound by the anti-McGinty and anti-Clauberg assays relative to CDB-2914.

| Compound | rbPR/rbGR (ratio of the relative binding affinities for rbPR and rbGR) [1] | rabbit Biol. Act. (rabbit uterus) |
| --- | --- | --- |
| CCOCC(=O)[C@@]1(OC(C)=O)CCC2C3CCC4=CC(=O)CCC4=C3C(c3ccc(N(C)C)cc3)C[C@@]21C (stereo partly drawn) [CDB-4167, 21-ethyloxy-17α-acetoxy-11β-(4 N,N-dimethylaminophenyl)-19-norpregna-4,9-diene-3,20-dione] | 1.69 |  |
| CC(=O)O[C@]1(C(=O)CSC#N)CCC2C3CCC4=CC(=O)CCC4=C3C(c3ccc(N(C)C)cc3)C[C@@]21C (stereo partly drawn) [CDB-4352, 21-cyanothio-17α-acetoxy-11β-(4 N,N-dimethylaminophenyl)-19 norpregna-4,9-diene-3,20-dione] | 4.21 |  |
| CCC(=O)OCC(=O)[C@@]1(OC(C)=O)CCC2C3CCC4=CC(=O)CCC4=C3C(c3ccc(N(C)C)cc3)C[C@@]21C (stereo partly drawn) [CDB-4247, 21-propionyloxy-17α-acetoxy-11β-(4 N,N-dimethylaminophenyl)-19-norpregna-4,9-diene-3,20-dione] | 2.06 |  |
| CCC(=O)[C@@]1(OC(C)=O)CCC2C3CCC4=CC(=O)CCC4=C3C(c3ccc(N(C)C)cc3)C[C@@]21C (stereo partly drawn) [CDB-4030, 21-methyl-17α-acetoxy-11β-(4 N,N-dimethylaminophenyl)-19-norpregna-4,9-diene-3,20-dione] | 0.96 |  |
| 21-(Cyp*-hydroxy)-17α-acetoxy-11β-(4 N,N-dimethylaminophenyl)-19-norpregna-4,9-diene-3,20-dione [CDB-4125] | 1.19 | 1.55 |
| CC(=O)O[C@]1(C(=O)C[S+](C)[O-])CCC2C3CCC4=CC(=O)CCC4=C3C(c3ccc(N(C)C)cc3)C[C@@]21C (stereo partly drawn) [CDB-4101, 21-methoxythio-17α-acetoxy-11β-(4 N,N-dimethylaminophenyl)-19-norpregna-4,9-diene-3,20-dione] | 0.61 |  |
| C=COCC(=O)[C@@]1(OC(C)=O)CCC2C3CCC4=CC(=O)CCC4=C3C(c3ccc(N(C)C)cc3)C[C@@]21C (stereo partly drawn) [CDB-4361, 21-vinyl ether-17α-acetoxy-11β-(4 N,N-dimethylaminophenyl)-19-norpregna-4,9-diene-3,20-dione] | 7.20 |  |
| COCC(=O)[C@@]1(OC(C)=O)CCC2C3CCC4=C(C(=O)c5ccccc5)C(=O)CCC4=C3C(c3ccc(N(C)C)cc3)C[C@@]21C (stereo partly drawn) [CDB-4239, 4-benzoin-21-methoxy-17α-acetoxy-11β-(4 N,N-dimethylaminophenyl)-19-norpregna-4,9-diene-3,20-dione] | 14.80 |  |
| CC(=O)O[C@]1(C(=O)CBr)CCC2C3CCC4=CC(=O)CCC4=C3C(c3ccc(N(C)C)cc3)C[C@@]21C (stereo partly drawn) [CDB-4031, 21-bromine-17α-acetoxy-11β-(4 N,N-dimethylaminophenyl)-19-norpregna-4,9-diene-3,20-dione] | 0.69 |  |
| 4-benzoin-21-acetylthio-17α-acetoxy-11β-(4 N,N-dimethylaminophenyl)-19-norpregna-4,9-diene-3,20-dione [CDB-4119] | 2.60 | 0.10 |
| CC(=O)O[C@]1(C(=O)CO)CCC2C3CCC4=CC(=O)CCC4=C3C(c3ccc(N(C)C)cc3)C[C@@]21C (stereo partly drawn) [CDB-4152, 21-hydroxy-17α-acetoxy-11β-(4 N,N-dimethylaminophenyl)-19-norpregna-4,9-diene-3,20-dione] | 0.82 |  |
| CC(=O)OCC(=O)[C@@]1(OC(C)=O)CCC2C3CCC4=CC(=NO)CCC4=C3C(c3ccc(N(C)C)cc3)C[C@@]21C (stereo partly drawn) [CDB-4206, 3-hydroxyamino-21-acetoxy-17α-acetoxy-11β-(4 N,N-dimethylaminophenyl)-19-norpregna-4,9-diene-3,20-dione] | 1.44 | 0.68 |
| CC(=O)O[C@]1(C(=O)CF)CCC2C3CCC4=CC(=O)CCC4=C3C(c3ccc(N(C)C)cc3)C[C@@]21C (stereo partly drawn) [CDB-4058, 21-flourine-17α-acetoxy-11β-(4 N,N-dimethylaminophenyl)-19-norpregna-4,9-diene-3,20-dione] | 1.08 |  |
| COCC(=O)C1(OC(C)=O)CCC2C3CCC4=CC(=NO)CCC4=C3C(c3ccc(N(C)C)cc3)C[C@@]21C (stereo partly drawn) [CDB-4205, 3-hydroxyamino-21-methoxy-17α-acetoxy-11β-(4 N,N-dimethylaminophenyl)-19-norpregna-4,9-diene-3,20-dione] | 1.99 | 1.00 |
| CC(=O)O[C@]1(C(=O)COC(=O)CN)CCC2C3CCC4=CC(=O)CCC4=C3C(c3ccc(N(C)C)cc3)C[C@@]21C (stereo partly drawn) [CDB-4306, 21-glycinate-17α-acetoxy-11β-(4 N,N-dimethylaminophenyl)-19-norpregna-4,9-diene-3,20-dione] | 5.90 | 0.95 |
| 21-methoxyacetyl-17α-acetoxy-11β-(4 N,N-dimethylaminophenyl)-19-norpregna-4,9-diene-3,20-dione [CDB-4362] | 4.74 | 1.25 |
| 21-BMD-17α-acetoxy-11β-(4 N,N-dimethylaminophenyl)-19-norpregna-4,9-diene-3,20-dione [CDB-4111] | 1.30 | 0.36 |
| CC(=O)O[C@]1(C2COC(C)(C)O2)CCC2C3CCC4=CC(=O)CCC4=C3C(c3ccc(N(C)C)cc3)C[C@@]21C (stereo partly drawn) [CDB-4110, 21-acetonide-17α-acetoxy-11β-(4 N,N-dimethylaminophenyl)-19-norpregna-4,9-diene-3,20-dione] | 0.70 |  |
| CSCC(=O)[C@@]1(OC(C)=O)CCC2C3CCC4=CC(=O)CCC4=C3C(c3ccc(N(C)C)cc3)C[C@@]21C (stereo partly drawn) [CDB-4223, 21-methylthio-17α-acetoxy-11β-(4 N,N-dimethylaminophenyl)-19-norpregna-4,9-diene-3,20-dione] | 1.17 |  |
| CCOCC(=O)[C@@]1(OC(C)=O)CCC2C3CCC4=CC(=NO)CCC4=C3C(c3ccc(N(C)C)cc3)C[C@@]21C (stereo partly shown) [CDB-4226] | 1.51 | 0.54 |
